Reference: ChEMBL document CHEMBL1201862, “PubChem BioAssay data set” (2004)
Calls of active or inactive are those of the source.

Experiments:
Paired box protein Pax-8 = Paired box protein Pax-8 (Homo sapiens, UniProt Q06710); experiment: inhibitors of PAX8-driven TPO luciferase reporter, dose response, RMG-I cells, cherry-pick (AID 687027); assay type: functional, cell-based;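 further: luciferase reporter driven by Pax8 target thyroperoxidase promoter measured by SteadyGlo luminescence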
[1] = non-specific cell cytotoxicity, dose response, cytotoxicity control for PAX8 inhibitor project, plate reader, dry powder samples (AID 743021); assay type: functional, cell-based
[2] = biological target: Photoreceptor-specific nuclear receptor (Homo sapiens, UniProt Q9Y5X4); assay type: functional, cell-based;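 further: CHO-S cells with Gal4-NCOR and VP16-NR2E3 two-hybrid luciferase reporter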
Sequence of Photoreceptor-specific nuclear receptor (Q9Y5X4 whole entry, the tested form may be a part): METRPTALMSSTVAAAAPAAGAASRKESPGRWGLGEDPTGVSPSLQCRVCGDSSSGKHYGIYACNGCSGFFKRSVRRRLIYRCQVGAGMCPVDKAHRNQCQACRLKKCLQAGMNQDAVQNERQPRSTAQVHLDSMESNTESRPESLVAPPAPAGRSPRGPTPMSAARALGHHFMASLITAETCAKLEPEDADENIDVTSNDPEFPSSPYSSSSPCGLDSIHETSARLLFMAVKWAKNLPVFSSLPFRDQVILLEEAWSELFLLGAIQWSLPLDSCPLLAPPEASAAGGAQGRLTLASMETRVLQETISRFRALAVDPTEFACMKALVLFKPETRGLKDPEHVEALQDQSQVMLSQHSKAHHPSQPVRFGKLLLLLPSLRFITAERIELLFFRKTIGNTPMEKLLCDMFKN

[3] = biological target: Ras and Rab interactor 1/Tyrosine-protein kinase ABL1 (Homo sapiens, UniProt P00519+Q13671); assay type: functional;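 further: biochemical TR-FRET dose-response test measuring inhibition of binding between Rin1 and Abl proteins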
Sequence of Ras and Rab interactor 1/Tyrosine-protein kinase ABL1 (P00519 whole entry): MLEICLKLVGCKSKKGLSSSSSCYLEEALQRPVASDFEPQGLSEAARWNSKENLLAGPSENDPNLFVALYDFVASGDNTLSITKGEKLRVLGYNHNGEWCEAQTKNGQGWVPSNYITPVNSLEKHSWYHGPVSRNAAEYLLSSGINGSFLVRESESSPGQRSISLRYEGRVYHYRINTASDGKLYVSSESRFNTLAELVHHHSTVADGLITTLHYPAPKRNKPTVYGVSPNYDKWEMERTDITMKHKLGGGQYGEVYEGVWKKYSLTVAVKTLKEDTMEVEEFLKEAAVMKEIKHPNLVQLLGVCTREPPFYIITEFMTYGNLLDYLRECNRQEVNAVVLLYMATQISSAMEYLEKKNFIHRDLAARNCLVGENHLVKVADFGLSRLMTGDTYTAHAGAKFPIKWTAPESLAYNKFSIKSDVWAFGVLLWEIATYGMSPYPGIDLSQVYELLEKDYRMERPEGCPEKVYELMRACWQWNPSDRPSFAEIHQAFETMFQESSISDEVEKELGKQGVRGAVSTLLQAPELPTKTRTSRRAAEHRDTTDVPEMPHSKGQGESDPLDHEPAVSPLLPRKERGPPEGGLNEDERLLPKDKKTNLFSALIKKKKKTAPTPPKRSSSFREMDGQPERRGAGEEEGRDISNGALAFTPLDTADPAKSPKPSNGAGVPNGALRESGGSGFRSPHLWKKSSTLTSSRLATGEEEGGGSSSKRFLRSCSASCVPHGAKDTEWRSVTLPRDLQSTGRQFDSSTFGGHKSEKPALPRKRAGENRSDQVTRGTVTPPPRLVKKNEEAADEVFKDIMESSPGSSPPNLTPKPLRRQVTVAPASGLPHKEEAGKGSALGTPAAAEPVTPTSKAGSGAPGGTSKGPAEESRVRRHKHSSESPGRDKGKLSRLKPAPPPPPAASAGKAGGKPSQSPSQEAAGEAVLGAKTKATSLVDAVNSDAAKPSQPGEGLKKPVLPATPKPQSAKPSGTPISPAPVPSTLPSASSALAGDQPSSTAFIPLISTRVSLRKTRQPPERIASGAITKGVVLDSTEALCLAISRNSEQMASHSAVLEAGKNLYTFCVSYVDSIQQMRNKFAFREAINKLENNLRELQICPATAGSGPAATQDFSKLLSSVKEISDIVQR
Sequence of Ras and Rab interactor 1/Tyrosine-protein kinase ABL1 (Q13671 whole entry): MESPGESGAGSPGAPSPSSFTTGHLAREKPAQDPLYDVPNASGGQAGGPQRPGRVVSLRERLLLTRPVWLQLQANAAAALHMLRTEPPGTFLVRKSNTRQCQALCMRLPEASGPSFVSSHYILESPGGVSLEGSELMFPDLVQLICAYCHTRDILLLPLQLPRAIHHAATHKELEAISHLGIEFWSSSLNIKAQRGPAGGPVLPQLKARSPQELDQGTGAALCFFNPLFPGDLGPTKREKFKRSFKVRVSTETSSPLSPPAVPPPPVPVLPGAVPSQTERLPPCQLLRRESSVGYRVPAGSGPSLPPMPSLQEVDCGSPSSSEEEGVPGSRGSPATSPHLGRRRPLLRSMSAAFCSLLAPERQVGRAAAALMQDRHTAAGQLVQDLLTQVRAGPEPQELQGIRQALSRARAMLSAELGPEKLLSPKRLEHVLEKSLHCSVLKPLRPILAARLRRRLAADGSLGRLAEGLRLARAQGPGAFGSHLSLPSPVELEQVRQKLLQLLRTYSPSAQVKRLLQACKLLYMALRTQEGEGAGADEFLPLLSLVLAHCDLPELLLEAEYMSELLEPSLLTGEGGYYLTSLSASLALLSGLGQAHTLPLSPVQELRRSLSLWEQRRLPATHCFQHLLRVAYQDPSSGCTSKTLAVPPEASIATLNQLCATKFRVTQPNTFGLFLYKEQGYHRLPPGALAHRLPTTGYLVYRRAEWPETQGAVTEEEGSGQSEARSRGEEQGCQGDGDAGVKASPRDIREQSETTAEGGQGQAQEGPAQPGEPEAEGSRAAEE

[4] = biological target: T1, Adenosylmethionine-8-amino-7-oxononanoate aminotransferase (Mycobacterium tuberculosis, UniProt P9WQ81); experiment: Mycobacterium tuberculosis BioA enzyme inhibitor Measured in Biochemical System Using Plate Reader - 2163-02_Inhibitor_Dose_CherryPick_Activity.; assay type: functional, Mycobacterium tuberculosis UT205
T1 sequence (P9WQ81 whole entry): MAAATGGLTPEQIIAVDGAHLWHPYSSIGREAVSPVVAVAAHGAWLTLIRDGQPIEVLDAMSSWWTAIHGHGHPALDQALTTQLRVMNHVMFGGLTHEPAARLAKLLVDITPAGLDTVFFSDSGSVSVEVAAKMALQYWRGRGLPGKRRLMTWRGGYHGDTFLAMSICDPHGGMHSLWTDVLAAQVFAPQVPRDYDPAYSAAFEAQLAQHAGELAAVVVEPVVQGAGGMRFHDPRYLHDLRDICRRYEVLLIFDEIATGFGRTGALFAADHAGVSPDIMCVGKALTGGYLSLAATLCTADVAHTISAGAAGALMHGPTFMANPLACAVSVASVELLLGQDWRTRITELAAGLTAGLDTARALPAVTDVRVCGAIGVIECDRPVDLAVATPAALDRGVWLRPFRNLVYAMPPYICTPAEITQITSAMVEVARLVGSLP

P388/ADR = experiment: cells; assay type: functional; conditions: Mus musculus
P388 = experiment: cells; assay type: functional; conditions: Mus musculus
[5] = Fluorescence-based cell-based high throughput dose response assay for inhibitors of the interaction of nucleotide-binding oligomerization domain containing 2 (NOD2) and the receptor-interacting serine-threonine kinase 2 (RIPK2).; assay type: functional; conditions: Homo sapiens
Vero = experiment: cells; assay type: functional; conditions: Chlorocebus sabaeus
[6] = biological target: Heat shock protein HSP 90-alpha (Homo sapiens, UniProt P07900); assay type: functional, organism-based
[7] = biological target: Eukaryotic translation initiation factor 4E (Mus musculus, UniProt P63073); experiment: eIF4E–eIF4G protein interaction inhibitors, dose response, biochemical, TR-FRET (AID 855); assay type: functional;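 further: potency for disrupting eIF4E binding to eIF4GI seen as loss of FRET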
Sequence of Eukaryotic translation initiation factor 4E (P63073 whole entry): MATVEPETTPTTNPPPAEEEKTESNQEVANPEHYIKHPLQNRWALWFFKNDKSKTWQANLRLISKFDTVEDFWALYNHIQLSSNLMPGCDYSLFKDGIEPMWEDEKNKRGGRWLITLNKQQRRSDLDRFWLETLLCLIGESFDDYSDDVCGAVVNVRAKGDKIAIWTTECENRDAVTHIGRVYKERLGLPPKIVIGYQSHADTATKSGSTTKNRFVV

Escherichia coli = experiment: microbe, parasite or virus in culture
[8] = inhibitors of firefly luciferase expression or activity, dose response, H4 neuroglioma cells, luminescence (AID 1990); assay type: functional, cell-based
BJ [9] = experiment: cytotoxicity toward BJ-TERT-LT-ST fibroblasts, dose response, cell-based, RAS-independent, luminescence (AID 1935); assay type: functional; conditions: Homo sapiens;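 further: BJ fibroblasts immortalized with TERT plus LT and ST oncogenes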
[10] = biological target: T2, COUP transcription factor 2 (Homo sapiens, UniProt P24468); experiment: Luminescence-based cell-based high throughput dose response assay to identify inhibitors of COUP-TFII (NR2F2).; assay type: functional;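 further: HEK293 cells transiently cotransfected with COUP-TFII expression vector and reporter; luciferase reporter luminescence driven by COUP-TFII from the pX2-168 reporter plasmid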
T2 sequence (P24468 whole entry): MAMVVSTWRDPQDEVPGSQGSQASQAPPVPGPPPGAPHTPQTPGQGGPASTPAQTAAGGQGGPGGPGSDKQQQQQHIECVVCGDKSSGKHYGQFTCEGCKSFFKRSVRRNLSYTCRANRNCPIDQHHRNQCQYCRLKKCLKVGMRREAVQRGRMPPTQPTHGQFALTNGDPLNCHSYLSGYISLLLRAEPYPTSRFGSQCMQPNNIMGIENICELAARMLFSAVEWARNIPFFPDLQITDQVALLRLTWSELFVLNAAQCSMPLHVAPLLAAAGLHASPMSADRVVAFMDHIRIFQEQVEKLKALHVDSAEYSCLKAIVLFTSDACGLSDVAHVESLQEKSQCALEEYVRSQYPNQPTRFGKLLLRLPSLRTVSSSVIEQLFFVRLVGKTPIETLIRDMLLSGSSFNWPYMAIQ

Protein RecA = biological target: T3, Protein RecA (Mycobacterium tuberculosis, UniProt P9WHJ3); experiment: Fluorescence Cell-Free Homogeneous Dose Retest to Identify Inhibitors of RecA-Intein Splicing Activity. [Related pubchem assays (depositor defined):AID2097, AID2223, AID489010, AID492950]; assay type: functional
T3 sequence (P9WHJ3 whole entry): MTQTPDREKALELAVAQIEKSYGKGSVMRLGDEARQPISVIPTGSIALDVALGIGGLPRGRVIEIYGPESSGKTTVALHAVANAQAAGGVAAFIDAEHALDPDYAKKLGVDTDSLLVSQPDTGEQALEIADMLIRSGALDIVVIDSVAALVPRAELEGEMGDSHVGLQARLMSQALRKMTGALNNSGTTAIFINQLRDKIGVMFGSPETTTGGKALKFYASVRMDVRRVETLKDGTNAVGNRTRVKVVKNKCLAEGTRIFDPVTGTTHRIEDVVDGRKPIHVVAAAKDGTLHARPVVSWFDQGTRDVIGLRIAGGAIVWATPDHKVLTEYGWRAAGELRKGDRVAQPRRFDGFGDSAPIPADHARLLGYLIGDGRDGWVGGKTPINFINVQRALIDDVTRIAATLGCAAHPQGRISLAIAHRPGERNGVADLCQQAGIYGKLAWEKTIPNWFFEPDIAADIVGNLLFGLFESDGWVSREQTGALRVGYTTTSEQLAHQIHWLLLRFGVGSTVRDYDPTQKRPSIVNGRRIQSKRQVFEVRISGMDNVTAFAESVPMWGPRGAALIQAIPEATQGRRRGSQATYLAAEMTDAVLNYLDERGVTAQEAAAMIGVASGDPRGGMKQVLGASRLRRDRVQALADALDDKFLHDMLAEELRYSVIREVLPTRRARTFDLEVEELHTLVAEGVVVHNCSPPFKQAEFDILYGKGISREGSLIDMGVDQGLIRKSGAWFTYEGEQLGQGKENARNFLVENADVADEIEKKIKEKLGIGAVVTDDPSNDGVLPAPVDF

BJ [11] = experiment: cytotoxicity toward BJ-TERT fibroblasts, dose response, cell-based, RAS-independent, luminescence (AID 1933); assay type: functional; conditions: Homo sapiens
[12] = biological target: T4, Replicative DNA helicase DnaB (Mycobacterium tuberculosis, UniProt P9WMR3); experiment: DnaB intein splicing inhibitors, dose response, biochemical, cell-free fluorescence (AID 449749); assay type: functional
T4 sequence (P9WMR3 whole entry): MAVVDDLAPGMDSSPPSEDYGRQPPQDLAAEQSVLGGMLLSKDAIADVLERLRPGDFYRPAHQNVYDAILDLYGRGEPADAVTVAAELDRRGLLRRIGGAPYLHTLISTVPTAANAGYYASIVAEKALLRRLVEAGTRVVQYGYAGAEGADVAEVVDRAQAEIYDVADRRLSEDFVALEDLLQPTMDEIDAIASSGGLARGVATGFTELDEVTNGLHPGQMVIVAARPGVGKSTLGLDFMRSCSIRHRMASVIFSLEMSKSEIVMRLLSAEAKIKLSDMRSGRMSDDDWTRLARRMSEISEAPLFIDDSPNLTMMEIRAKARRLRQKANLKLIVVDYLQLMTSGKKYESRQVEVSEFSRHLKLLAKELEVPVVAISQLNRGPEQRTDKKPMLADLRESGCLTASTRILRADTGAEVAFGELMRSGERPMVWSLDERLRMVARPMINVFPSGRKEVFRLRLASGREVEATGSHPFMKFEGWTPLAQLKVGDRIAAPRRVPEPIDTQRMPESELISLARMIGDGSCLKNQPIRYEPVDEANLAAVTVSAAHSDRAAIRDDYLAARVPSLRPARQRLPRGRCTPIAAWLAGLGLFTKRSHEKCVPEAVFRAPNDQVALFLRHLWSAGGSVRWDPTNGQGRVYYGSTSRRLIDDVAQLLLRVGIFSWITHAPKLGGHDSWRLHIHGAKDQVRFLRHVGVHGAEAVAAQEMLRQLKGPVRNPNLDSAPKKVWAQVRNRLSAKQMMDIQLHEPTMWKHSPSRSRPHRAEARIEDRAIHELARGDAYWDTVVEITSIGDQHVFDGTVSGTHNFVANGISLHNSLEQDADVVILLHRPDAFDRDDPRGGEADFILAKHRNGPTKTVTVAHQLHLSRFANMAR

[13] = cytotoxicity toward DRD oncogenic fibroblasts, dose response, cell-based, non-viral oncogenic, luminescence (AID 1934); assay type: functional; conditions: Homo sapiens
INS1 = experiment: beta cell apoptosis inhibitors, cytokine rescue, dose response, luminescence, retest (AID 449756); assay type: functional, cell-based; conditions: Rattus norvegicus;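 further: cell death triggered by IL-1 beta plus TNF-alpha plus IFN-gamma mixture; protective hits raise ATP signal compared with cytokine alone wells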
[14] = inhibitors of SNCA 5'UTR-driven reporter translation, confirmation, H4 neuroglioma cells, luminescence (AID 1988); assay type: functional, cell-based
[15] = Luminescence Cell-Based Dose Response HTS to Identify Inhibitors of 5'UTR Stem-Loop Driven Prion Protein mRNA Translation in H4 Neuroglioblastoma Cells. [Related pubchem assays: 1827 (Project Summary), 1813 (Primary HTS)]; assay type: functional
BJ [16] = experiment: cells; assay type: functional, cell-based; conditions: Homo sapiens
cells [17] = assay type: functional, cell-based
cells [18] = assay type: functional, cell-based; remark: listed apart in the source
[19] = control 3'UTR Renilla luciferase suppression, dose response, counter-screen for Shn3 inhibitor project, cell-based, Clone20-Shn3RL, cherry-picked (AID 624133); assay type: functional
[20] = Shn3 3'UTR reporter inhibitors, dose response, cell-based, Clone20 osteoblasts, firefly luciferase, cherry-picked (AID 624132); assay type: functional;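 further: firefly luciferase luminescence from reporter carrying the Shn3 3'UTR in osteoblasts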
[21] = HepG2 cell cytotoxicity, dose response, cytotoxicity control for Shn3 inhibitor project, CellTiter-Glo, cherry-picked (AID 624134); assay type: functional, cell-based

Sequence of Paired box protein Pax-8 (Q06710 whole entry): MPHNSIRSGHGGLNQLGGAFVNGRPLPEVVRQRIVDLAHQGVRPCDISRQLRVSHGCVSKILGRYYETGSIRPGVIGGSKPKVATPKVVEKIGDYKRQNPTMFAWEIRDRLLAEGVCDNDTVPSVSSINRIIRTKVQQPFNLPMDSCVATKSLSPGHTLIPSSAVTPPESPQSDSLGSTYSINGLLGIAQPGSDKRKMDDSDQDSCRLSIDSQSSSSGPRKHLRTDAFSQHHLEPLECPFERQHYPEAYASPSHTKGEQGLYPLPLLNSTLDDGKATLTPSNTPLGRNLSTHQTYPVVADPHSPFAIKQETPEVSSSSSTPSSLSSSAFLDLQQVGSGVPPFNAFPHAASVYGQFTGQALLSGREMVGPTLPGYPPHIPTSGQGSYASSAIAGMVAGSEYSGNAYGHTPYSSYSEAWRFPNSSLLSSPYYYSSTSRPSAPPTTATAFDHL

COc1ccc(OC)c(N(CCN2C(=O)c3ccccc3C2=O)C(=O)CCl)c1
AC50 (Paired box protein Pax-8): 0.966 µM (active) | AC50 [1]: 2.34 µM (active)

O=C(CN1C(=O)C(c2ccc(F)cc2)=NC12CCCC2)Nc1ccc(F)cc1
IC50 [2]: 2.93 µM (active)

C[C@@H]1CCCCO[C@@H](CN(C)S(=O)(=O)c2ccccc2)[C@@H](C)CN([C@H](C)CO)C(=O)c2cc(NS(=O)(=O)c3ccc(F)cc3)ccc2O1
IC50 [3]: 1.9 µM (active)

Cc1ccc(Cc2c(C)nc3nc(SCC(=O)NCCN4CCOCC4)nn3c2C)cc1
AC50 [4]: 12.6 µM (active)

O=C(Nc1ccc(F)cc1)NC1CCN(Cc2nnnn2Cc2ccco2)CC1
AC50 [4]: 3.58 µM (active)

COc1ccc(CC2C(=O)NC(C)C(=O)N(C)C3Cc4ccc(cc4)Oc4cc(ccc4O)CC(C(=O)NC(C)C(=O)NC(C)C(=O)N2C)N(C)C3=O)cc1 (stereo not given)
GI50 (P388/ADR): 3.94 µM (inactive) | AC50 (Paired box protein Pax-8): < 0.26 µM (active) | GI50 (P388): 0.0175 µM (active) | IC50 [5]: 49.8 µM (inactive) | CC50 (Vero): 3.44 µM (active)

CC1CC(C)C(=NNC(N)=O)C(C(O)CC2CCC(=O)NC2=O)C1 (stereo not given)
IC50 [2]: 2.53 µM (active) | AC50 [6]: < 0.195 µM (active) | CC50 (Vero): > 25 µM (active)

CCn1c(SCC(=O)Nc2ccccc2OC)nc2ccccc2c1=O
IC50 [7]: > 64 µM (inactive)

O=C(c1cc(COc2cccc3cccnc23)on1)N1CCC[C@H]1CO
IC50 [3]: 2.94 µM (active)

CS(=O)(=O)c1ccc(Cl)c(NC(=O)COC(=O)CCc2c[nH]c3ccccc23)c1
AC50 (Escherichia coli): 31.5 µM (active)

CCOC(=O)CCCCC(=O)c1[nH]c(=O)[nH]c1CSc1nc(C)cc(C)n1
IC50 [3]: 2.39 µM (active)

COCCNC(=O)C[C@@H]1CC[C@@H]2[C@@H](COc3ccc(NC(=O)Nc4cccc(F)c4)cc3C(=O)N2C)O1
AC50 [4]: 10.8 µM (active)

Nc1nnc(CC(=O)N2CCCCC2)s1
IC50 [7]: > 64 µM (inactive)

O=C1CNC(=O)N1CC(O)Cn1c2ccccc2c2ccccc21 (stereo not given)
IC50 [3]: 11.9 µM (inactive)

Cc1onc(-c2ccccc2)c1C(=O)Nc1nc(-c2cc(F)ccc2F)cs1
AC50 (Escherichia coli): 38.9 µM (active)

Cc1nc(C(C)(C)O)n(-c2ccccc2)n1
IC50 [7]: > 64 µM (inactive)

CC1CN(C(=O)Nc2ccc3snnc3c2)c2ccccc21 (stereo not given)
AC50 [4]: 0.212 µM (active)

O=[N+]([O-])c1cccc(-c2ccc(/C=N/n3c(S)nnc3-c3ccccc3)o2)c1
IC50 [7]: > 64 µM (inactive)

N#CC(C#N)=C(Nc1ccc(F)cc1)SCc1cccc(Br)c1
EC50 [8]: 11.2 µM (active) | EC50 (BJ [9]): 22.5 µM (active) | IC50 [10]: 11.3 µM (inactive) | EC50 (Protein RecA): 2.38 µM (active) | EC50 (BJ [11]): 11.8 µM (inconclusive) | AC50 [12]: 3.08 µM (active) | EC50 [13]: 21.7 µM (active) | AC50 (INS1): 2.92 µM (active) | EC50 [14]: 13.5 µM (active) | EC50 [15]: 0.272 µM (active) | EC50 (BJ [16]): 22.2 µM (active)

COc1cc(NC(=O)C2CCCCC2)c(OC)cc1NC(=O)c1ccco1
AC50 (Escherichia coli): 30.6 µM (active)

Cc1cc(C)c(NS(=O)(=O)c2ccc3c(c2)NC(=O)CCS3)c(C)c1
AC50 (Escherichia coli): 23.1 µM (active) | EC50 (cells [17]): > 350 µM (not active) | EC50 (cells [18]): 58.1 µM (active)

COC1CC2C=C(C)C=CC=CC(=O)NC(c3ccccc3)CC=CCCC(O)CC(O)=C2C1=O (stereo not given)
AC50 (Paired box protein Pax-8): 0.673 µM (active) | AC50 [19]: 1.48 µM (active) | AC50 [20]: 0.629 µM (active) | AC50 [21]: 3.98 µM (active) | AC50 [1]: 4.97 µM (active)
